Where “and” joins values, the source holds several entries; their conditions need not be identical. Equal values may be shown once. Toxic doses and inconclusive results are not listed.

This note sets out measurements from PubChem BioAssay AID292 (DTP/NCI, 2004).

This assay relates to B6C3F1 mice, ip Sarcoma M5076, median survival T/C. As to the kind of experiment: NCI In Vivo Anticancer Drug Screen. Data for tumor model Sarcoma M5076 (intraperitoneal) in B6C3F1 mice. Conditions: endpoint: median survival time, higher = longer survival. Put shortly:
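Tumour cells were transplanted into mice, compound or vehicle was given, survival of both groups was followed, and the treated figure was expressed over the control figure.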

The mark [1] stands for this setting: dose: 50.0 mg/kg/injection, schedule: Q04DX004 (ip), vehicle: Klucel (hydroxypropylcellulose) (HPC).
The mark [2] stands for this setting: dose: 100.0 mg/kg/injection, schedule: Q04DX004 (ip), vehicle: Klucel (hydroxypropylcellulose) (HPC).
Where [3] appears, read: dose: 200.0 mg/kg/injection, schedule: Q04DX004 (ip), vehicle: Klucel (hydroxypropylcellulose) (HPC).
Where [4] appears, read: dose: 400.0 mg/kg/injection, schedule: Q04DX004 (ip), vehicle: Klucel (hydroxypropylcellulose) (HPC).
Setting [5] is: dose: 25.0 mg/kg/injection, schedule: Q04DX004 (ip), vehicle: Klucel (hydroxypropylcellulose) (HPC).

For `NC(=O)c1c[se]c(C2OC(CO)C(O)C2O)n1` (stereo not drawn), the T/C (dose: 25.0 mg/kg/injection, schedule: Q04DX004 (ip), vehicle: water) is 96 % of control; the T/C (dose: 50.0 mg/kg/injection, schedule: Q04DX004 (ip), vehicle: water) was 100 % of control; the T/C (dose: 100.0 mg/kg/injection, schedule: Q04DX004 (ip), vehicle: water) was 102 % of control; the T/C (dose: 200.0 mg/kg/injection, schedule: Q04DX004 (ip), vehicle: water) is 106 % of control; the T/C (dose: 400.0 mg/kg/injection, schedule: Q04DX004 (ip), vehicle: water) is 113 % of control.

Consider `Nc1ncnc2c1ncn2C1CC2[O][Sn]([c]3ccccc3)([c]3ccccc3)[O]CC2O1` (stereo not drawn), for which the T/C is 95 % of control (dose: 31.13 mg/kg/injection, schedule: Q04DX004 (ip), vehicle: distilled water + Tween-80); 92 % of control (dose: 62.5 mg/kg/injection, schedule: Q04DX004 (ip), vehicle: distilled water + Tween-80); 101 % of control (dose: 125.0 mg/kg/injection, schedule: Q04DX004 (ip), vehicle: distilled water + Tween-80); 101 % of control (dose: 250.0 mg/kg/injection, schedule: Q04DX004 (ip), vehicle: distilled water + Tween-80); 104 % of control (dose: 500.0 mg/kg/injection, schedule: Q04DX004 (ip), vehicle: distilled water + Tween-80).

As for `O=c1[nH]c(=O)n(C2CC(O)C(CO)O2)cc1I` (stereo not drawn), the T/C (dose: 100.0 mg/kg/injection, schedule: Q04DX004 (ip), vehicle: saline with Tween-80) was 103 % of control and 117 % of control; the T/C (dose: 200.0 mg/kg/injection, schedule: Q04DX004 (ip), vehicle: saline with Tween-80) is 108 % of control and 118 % of control; the T/C (dose: 400.0 mg/kg/injection, schedule: Q04DX004 (ip), vehicle: saline with Tween-80) was 122 % of control; the T/C (dose: 800.0 mg/kg/injection, schedule: Q04DX004 (ip), vehicle: saline with Tween-80) is 158 % of control; the T/C (dose: 1600.0 mg/kg/injection, schedule: Q04DX004 (ip), vehicle: saline with Tween-80) is 243 % of control.

`CN1C2CCC1C(Br)C(=O)C2` (stereo not drawn): the T/C was 101 % of control (dose: 50.0 mg/kg/injection, schedule: Q04DX004 (ip), vehicle: saline); 104 % of control (dose: 100.0 mg/kg/injection, schedule: Q04DX004 (ip), vehicle: saline); 103 % of control (dose: 200.0 mg/kg/injection, schedule: Q04DX004 (ip), vehicle: saline).

In the case of `Nc1nc2n[nH]nc2c(=O)[nH]1`, the T/C was 118 % of control (dose: 50.0 mg/kg/injection, schedule: Q04DX004 (ip), vehicle: suspension in saline) and 123 % of control (dose: 200.0 mg/kg/injection, schedule: Q04DX004 (ip), vehicle: suspension in saline).

On to `CCC(/C=C/C1OC(=O)C=CC1C)=C\C(C)C/C=C/C(C)=C/C(C)C(=O)C(C)C(O)C(C)C/C(C)=C/C(=O)O` (stereo not drawn), for which the T/C (dose: 25.0 micrograms/kg/injection, schedule: Q04DX004 (ip), vehicle: other) is 104 % of control; the T/C (dose: 25.0 micrograms/kg/injection, schedule: Q04DX004 (ip), vehicle: saline + alcohol) is 162 % of control; the T/C (dose: 25.0 micrograms/kg/injection, schedule: Q04DX004 (ip), vehicle: saline) is 110 % of control and 111 % of control; the T/C (dose: 25.0 micrograms/kg/injection, schedule: Q04DX004 (iv), vehicle: saline) was 101 % of control; the T/C (dose: 50.0 micrograms/kg/injection, schedule: Q04DX004 (ip), vehicle: other) is 114 % of control; the T/C (dose: 50.0 micrograms/kg/injection, schedule: Q04DX004 (ip), vehicle: saline + alcohol) was 163 % of control and 175 % of control. The T/C is, setting by setting: (dose: 50.0 micrograms/kg/injection, schedule: Q04DX004 (ip), vehicle: saline) 109 % of control and 114 % of control; (dose: 50.0 micrograms/kg/injection, schedule: Q04DX004 (iv), vehicle: saline) 104 % of control; (dose: 100.0 micrograms/kg/injection, schedule: Q04DX004 (ip), vehicle: other) 121 % of control; (dose: 100.0 micrograms/kg/injection, schedule: Q04DX004 (ip), vehicle: saline + alcohol) 166 % of control and 188 % of control; (dose: 100.0 micrograms/kg/injection, schedule: Q04DX004 (ip), vehicle: saline) 124 % of control; (dose: 100.0 micrograms/kg/injection, schedule: Q04DX004 (iv), vehicle: saline) 110 % of control. Moreover, the T/C reads like this: (dose: 100.0 micrograms/kg/injection, schedule: Q04DX004 (sc), vehicle: other) 106 % of control; (dose: 200.0 micrograms/kg/injection, schedule: Q04DX004 (ip), vehicle: other) 121 % of control; (dose: 200.0 micrograms/kg/injection, schedule: Q04DX004 (ip), vehicle: saline + alcohol) 184 % of control and 195 % of control; (dose: 200.0 micrograms/kg/injection, schedule: Q04DX004 (ip), vehicle: saline) 124 % of control; (dose: 200.0 micrograms/kg/injection, schedule: Q04DX004 (iv), vehicle: saline) 102 % of control; (dose: 200.0 micrograms/kg/injection, schedule: Q04DX004 (sc), vehicle: other) 106 % of control. In addition, the T/C runs as follows: (dose: 400.0 micrograms/kg/injection, schedule: Q04DX004 (ip), vehicle: other) 152 % of control; (dose: 400.0 micrograms/kg/injection, schedule: Q04DX004 (ip), vehicle: saline + alcohol) 163 % of control and 184 % of control and 195 % of control; (dose: 400.0 micrograms/kg/injection, schedule: Q04DX004 (iv), vehicle: saline) 105 % of control; (dose: 400.0 micrograms/kg/injection, schedule: Q04DX004 (sc), vehicle: other) 106 % of control; (dose: 800.0 micrograms/kg/injection, schedule: Q04DX004 (ip), vehicle: saline + alcohol) 191 % of control and 217 % of control; (dose: 800.0 micrograms/kg/injection, schedule: Q04DX004 (ip), vehicle: saline) 152 % of control. Further, the T/C is 116 % of control (dose: 800.0 micrograms/kg/injection, schedule: Q04DX004 (iv), vehicle: saline) and 119 % of control (dose: 800.0 micrograms/kg/injection, schedule: Q04DX004 (sc), vehicle: other).

Regarding `N#CC1C(=O)NC(=O)C(C#N)C1c1cccc(O)c1` (stereo not drawn), the T/C by setting is: under setting [1], 95 % of control; under setting [2], 102 % of control; under setting [3], 99 % of control; under setting [4], 95 % of control; (dose: 800.0 mg/kg/injection, schedule: Q04DX004 (ip), vehicle: Klucel (hydroxypropylcellulose) (HPC)) 109 % of control.

`Cn1[nH]c2[nH]c(=S)sc(=S)c2c1=O`: the T/C reads like this: under setting [5], 100 % of control; under setting [1], 94 % of control; under setting [2], 95 % of control; under setting [3], 94 % of control; under setting [4], 95 % of control.

As to `O=C(Nc1ccccc1)C1C(=O)C(=O)N(c2ccccc2)C1=O` (stereo not drawn), the T/C by setting is: under setting [5], 99 % of control; under setting [1], 90 % of control; under setting [2], 92 % of control; under setting [3], 95 % of control; under setting [4], 95 % of control.

Regarding `N#CC1C(=O)NC(=S)NC1CCc1ccccc1` (stereo not drawn), the T/C under setting [1] is 95 % of control, the T/C under setting [2] is 100 % of control and the T/C under setting [3] was 108 % of control.

On to `O=C1CCCCCC2=NC12` (stereo not drawn), for which the T/C reads like this: (dose: 6.25 mg/kg/injection, schedule: Q04DX004 (ip), vehicle: Klucel (hydroxypropylcellulose) (HPC)) 98 % of control; (dose: 12.5 mg/kg/injection, schedule: Q04DX004 (ip), vehicle: Klucel (hydroxypropylcellulose) (HPC)) 100 % of control and 105 % of control; under setting [5], 105 % of control and 112 % of control; under setting [1], 100 % of control and 113 % of control; under setting [2], 103 % of control and 113 % of control.

With `O=C(N/N=C/c1ccc(O)cc1)c1ccc(OCc2nc3ccccc3[nH]2)cc1`, the T/C is, setting by setting: under setting [5], 96 % of control; under setting [2], 93 % of control; under setting [4], 92 % of control.

As to `O=C(CSc1nnc(CSc2ccc(Cl)cc2)n1-c1ccccc1)NC(=O)Nc1ccccc1`, the T/C was 103 % of control (dose: 4.69 mg/kg/injection, schedule: Q04DX004 (ip), vehicle: Klucel (hydroxypropylcellulose) (HPC)); 102 % of control (dose: 9.38 mg/kg/injection, schedule: Q04DX004 (ip), vehicle: Klucel (hydroxypropylcellulose) (HPC)); 88 % of control (dose: 18.75 mg/kg/injection, schedule: Q04DX004 (ip), vehicle: Klucel (hydroxypropylcellulose) (HPC)); 88 % of control and 89 % of control (dose: 37.5 mg/kg/injection, schedule: Q04DX004 (ip), vehicle: Klucel (hydroxypropylcellulose) (HPC)).

With `CN1CCc2c(c3ccccc3c3ccccc23)C1`, the T/C is 114 % of control (dose: 75.0 mg/kg/injection, schedule: Q04DX004 (ip), vehicle: Klucel (hydroxypropylcellulose) (HPC)) and 122 % of control (dose: 150.0 mg/kg/injection, schedule: Q04DX004 (ip), vehicle: Klucel (hydroxypropylcellulose) (HPC)).
